Literature values as cited in patent US7261907B2, “Compositions for the treatment of neurological disorders” (priority 2001, dated 2007).
Structures can show the parent of a compound that is named as a salt.

Test system: nicotine and cocaine addiction
Conditions: in vivo

CC(NC(C)(C)C)C(=O)c1cccc(Cl)c1 (stereo not shown) [bupropion hydrochloride]
effectiveness in treating nicotine and cocaine addiction: moderately effective
